Assays:
[1] = Solubility of the compound of Formula (1) in various solvents (excess compound, shaking, HPLC); assay type: physicochemical
[2] = as above; assay type: physicochemical; details: for solubility at 24 h: thermodynamic from solid
Procedure: An excess amount of the compound of Formula (1) was added to 1 mL of each solvent described in Table 1 below and stirred for 24 hours at 25° C. while shaking at 200 rpm (Shaking incubator, SI 600R, JEIO TECH, Korea). Thereafter, a centrifugation was performed at 10,000 rpm for 10 minutes, and the supernatant was filtered using a membrane filter (0.2 μm), then diluted moderately with methanol and analyzed by HPLC.

For `CCCc1nc(C(F)(F)F)ccc1/C=C/C(=O)N[C@H](C)c1cc(F)c(NS(C)(=O)=O)c(F)c1` [compound of Formula (1), (R)—N-[1-(3,5-difluoro-4-methanesulfonylamino-phenyl)-ethyl]-3-(2-propyl-6-trifluoromethyl-pyridin-3-yl)-acrylamide], the solubility ([1]; aqueous with cosolvent or surfactant or cyclodextrin, in a 10% (w/w) aqueous solution of PEG 400) was about 0.08 mg/mL, the solubility in oil ([1]; oil, background statement) was “significantly low solubility in oil” and the solubility at 24 h ([2]; 25 °C, organic solvent or mixture, in dimethyl sulfoxide, diethylene glycol monoethyl ether, 2-pyrrolidone and polyethylene glycol (summary of Table 1)) was at least 100 mg/mL. It also gave a solubility at 24 h ([2]; oil or lipid, in Cocoyl caprylocaprate, 25° C., 24 hours) of 0.46 mg/mL, a solubility at 24 h ([2]; oil or lipid, in Corn oil, 25° C., 24 hours) of 1.8 mg/mL and a solubility at 24 h ([2]; oil or lipid, in Ethyl oleate, 25° C., 24 hours) of 1 mg/mL. It also gave a solubility at 24 h ([2]; oil or lipid, in Isopropyl myristate, 25° C., 24 hours) of 1.18 mg/mL, a solubility at 24 h ([2]; oil or lipid, in Miglyol, 25° C., 24 hours) of 1.4 mg/mL and a solubility at 24 h ([2]; oil or lipid, in Octyldodecanol, 25° C., 24 hours) of 1.77 mg/mL. For the same molecule, the solubility at 24 h ([2]; oil or lipid, in Oleic acid, 25° C., 24 hours) was 0.43 mg/mL, the solubility at 24 h ([2]; oil or lipid, in Oleyl Alcohol, 25° C., 24 hours) was 6.32 mg/mL and the solubility at 24 h ([2]; oil or lipid, in Propylene glycol monocaprylate, 25° C., 24 hours) was 75 mg/mL. For the same molecule, the solubility at 24 h ([2]; oil or lipid, in Propylene glycol monolaurate, 25° C., 24 hours) was 7.75 mg/mL, the solubility at 24 h ([2]; oil or lipid, in Triglycerides, Medium chain, 25° C., 24 hours) was 1.9 mg/mL and the solubility at 24 h ([2]; organic solvent or mixture, in 2-Pyrrolidinone, 25° C., 24 hours) was 212 mg/mL. It also gave a solubility at 24 h ([2]; organic solvent or mixture, in Acetonitrile, 25° C., 24 hours) of 108 mg/mL, a solubility at 24 h ([2]; organic solvent or mixture, in Caprylocaproyl polyoxyl-8 glycerides, 25° C., 24 hours) of 46.7 mg/mL and a solubility at 24 h ([2]; organic solvent or mixture, in Diethylene glycol monoethyl ether, 25° C., 24 hours) of 289 mg/mL. The solubility at 24 h ([2]; organic solvent or mixture, in Dimethyl sulfoxide, 25° C., 24 hours) was 632 mg/mL, the solubility at 24 h ([2]; organic solvent or mixture, in Dimethylacetamide, 25° C., 24 hours) was 80 mg/mL and the solubility at 24 h ([2]; organic solvent or mixture, in Ethanol, 25° C., 24 hours) was 75.3 mg/mL. The solubility at 24 h ([2]; organic solvent or mixture, in Glycerol, 25° C., 24 hours) was 0.84 mg/mL, the solubility at 24 h ([2]; organic solvent or mixture, in Lauroyl macrogol-32 glycerides, 25° C., 24 hours) was 24.1 mg/mL and the solubility at 24 h ([2]; organic solvent or mixture, in Methanol, 25° C., 24 hours) was 178 mg/mL. The solubility at 24 h ([2]; organic solvent or mixture, in Oleoyl polyoxyl-6 glycerides, 25° C., 24 hours) was 4.36 mg/mL, the solubility at 24 h ([2]; organic solvent or mixture, in Poloxamer 124, 25° C., 24 hours) was 66.7 mg/mL and the solubility at 24 h ([2]; organic solvent or mixture, in Polyethylene glycol(PEG) 300, 25° C., 24 hours) was 146 mg/mL. For the same molecule, the solubility at 24 h ([2]; organic solvent or mixture, in Polyethylene glycol(PEG) 400, 25° C., 24 hours) was 168 mg/mL, the solubility at 24 h ([2]; organic solvent or mixture, in Polyethylene glycol-35 castor oil, 25° C., 24 hours) was 2.7 mg/mL and the solubility at 24 h ([2]; organic solvent or mixture, in Polyoxyl 40 hydrogenated castor oil, 25° C., 24 hours) was 36 mg/mL. It also gave a solubility at 24 h ([2]; organic solvent or mixture, in Polysorbate 20, 25° C., 24 hours) of 48 mg/mL, a solubility at 24 h ([2]; organic solvent or mixture, in Polysorbate 40, 25° C., 24 hours) of 37 mg/mL and a solubility at 24 h ([2]; organic solvent or mixture, in Polysorbate 60, 25° C., 24 hours) of 35 mg/mL. For the same molecule, the solubility at 24 h ([2]; organic solvent or mixture, in Polysorbate 80, 25° C., 24 hours) was 11.8 mg/mL, the solubility at 24 h ([2]; organic solvent or mixture, in Propylene glycol, 25° C., 24 hours) was 25 mg/mL and the solubility at 24 h ([2]; organic solvent or mixture, in Triacetin, 25° C., 24 hours) was 56.5 mg/mL. The solubility at 24 h ([2]; in Purified water, 25° C., 24 hours) was 0.05 mg/mL and the solubility ([2]; water, background statement) was under 0.1 mg/mL.
